Laboratory results from patent publication US20260315487A1, “IKK-ALPHA INHIBITORS” (Cancer Research Technology Limited, priority 2023, published 2026).
Read-outs that look alike come from different tables or passages of the source.

Tests used:
IKKα [1] = target: T1, IKKα (Homo sapiens, UniProt O15111); details: previous work [6]; read-out: IKKα inhibitory activity (Ki) of previous hit; cited from earlier work
T1 sequence (O15111 1-745): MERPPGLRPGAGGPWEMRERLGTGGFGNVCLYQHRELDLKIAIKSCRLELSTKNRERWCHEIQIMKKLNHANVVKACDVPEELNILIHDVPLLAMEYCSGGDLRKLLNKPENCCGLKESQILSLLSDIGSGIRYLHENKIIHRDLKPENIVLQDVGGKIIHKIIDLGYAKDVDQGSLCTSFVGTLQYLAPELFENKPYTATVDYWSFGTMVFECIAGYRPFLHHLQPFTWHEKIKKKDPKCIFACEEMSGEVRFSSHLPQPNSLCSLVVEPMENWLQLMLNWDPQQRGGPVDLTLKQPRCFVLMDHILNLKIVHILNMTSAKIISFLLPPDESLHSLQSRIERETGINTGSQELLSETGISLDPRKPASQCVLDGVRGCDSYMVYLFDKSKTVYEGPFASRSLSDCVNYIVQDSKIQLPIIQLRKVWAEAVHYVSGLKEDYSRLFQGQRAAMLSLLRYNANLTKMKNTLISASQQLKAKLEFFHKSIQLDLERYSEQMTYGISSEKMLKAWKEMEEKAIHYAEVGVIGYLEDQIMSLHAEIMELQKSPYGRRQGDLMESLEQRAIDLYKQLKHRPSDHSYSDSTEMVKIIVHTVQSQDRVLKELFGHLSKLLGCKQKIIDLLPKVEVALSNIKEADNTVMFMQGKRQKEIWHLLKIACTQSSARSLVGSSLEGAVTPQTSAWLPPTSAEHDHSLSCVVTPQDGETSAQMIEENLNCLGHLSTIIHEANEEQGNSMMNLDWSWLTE

IKKα over IKKβ [2] = details: previous work [6]; cited from earlier work
U2OS cells = details: cited from earlier work
CDK9 = CDK9 (Homo sapiens, UniProt P50750); assay: kinome profiling at 1 μM, CDK9; assay type: biochemical; details: read-out: % inhibition of CDK9
Sequence of CDK9 (P50750 whole entry, species assumed): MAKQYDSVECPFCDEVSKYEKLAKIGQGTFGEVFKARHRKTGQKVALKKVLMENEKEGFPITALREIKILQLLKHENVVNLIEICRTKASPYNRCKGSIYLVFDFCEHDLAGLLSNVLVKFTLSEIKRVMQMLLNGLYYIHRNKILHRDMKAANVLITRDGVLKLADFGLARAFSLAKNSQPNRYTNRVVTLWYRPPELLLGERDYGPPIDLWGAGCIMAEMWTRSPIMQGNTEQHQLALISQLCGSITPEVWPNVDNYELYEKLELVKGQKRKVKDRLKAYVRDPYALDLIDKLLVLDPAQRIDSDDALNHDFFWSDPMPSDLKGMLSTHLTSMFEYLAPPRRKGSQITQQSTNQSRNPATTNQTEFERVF
Sequence of CDK9 (O60563 whole entry partner, species assumed): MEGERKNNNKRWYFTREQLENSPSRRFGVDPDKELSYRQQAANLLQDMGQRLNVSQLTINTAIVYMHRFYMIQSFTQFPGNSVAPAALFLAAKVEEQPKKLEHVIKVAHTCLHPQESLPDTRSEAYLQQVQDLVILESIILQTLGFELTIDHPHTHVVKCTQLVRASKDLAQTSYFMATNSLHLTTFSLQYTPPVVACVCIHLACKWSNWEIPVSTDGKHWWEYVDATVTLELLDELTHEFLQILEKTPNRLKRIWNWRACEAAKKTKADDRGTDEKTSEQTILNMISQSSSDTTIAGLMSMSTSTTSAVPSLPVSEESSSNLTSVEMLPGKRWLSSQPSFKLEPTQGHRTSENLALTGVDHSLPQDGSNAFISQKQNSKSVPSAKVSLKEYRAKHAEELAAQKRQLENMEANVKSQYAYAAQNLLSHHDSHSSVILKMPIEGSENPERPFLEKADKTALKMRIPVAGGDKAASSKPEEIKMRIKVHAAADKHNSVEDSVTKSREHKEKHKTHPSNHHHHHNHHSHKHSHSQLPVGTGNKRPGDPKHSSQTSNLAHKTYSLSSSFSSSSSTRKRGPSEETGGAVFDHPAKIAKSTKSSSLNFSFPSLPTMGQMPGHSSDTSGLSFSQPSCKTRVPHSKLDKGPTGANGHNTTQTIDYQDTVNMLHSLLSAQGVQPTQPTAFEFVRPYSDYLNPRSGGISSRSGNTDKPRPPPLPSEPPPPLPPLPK
Excerpt: (§1) We profiled three compounds from the series across the kinome (FIG. 11). […] To identify the structural drivers for CDK inhibition, we obtained X-ray crystal structures of 5 y and 6 g SU1336 and SU1349 with CDK-2 (FIG. 12A) to potentially identify possible routes towards introducing selectivity for IKKα over the CDK enzymes as well as IKKβ. […] All three derivatives form complexes with CDK2 with the pyrrolo[2,3 -b]pyridine H-bonding to GK+3 (Leu 83 ) and the aminoindazole projected towards the G-loop (FIG. 12A), forming H-bonds with Glu 51 and Lys 33 at the back of the pocket. The adoption of the 4 SU1253 -type orientation, rather than the flipped pose observed in IKKα, is probably facilitated by Tr-stacking between the aminoindazole and the GK residue, which in the CDKs is Phe, rather than Met. […] For 6 g SU1349, the hydrophobic pendant benzyloxy group points out into solvent, but can form face-to-edge Tr-Tr interactions with Phe 82 and His 84 from the hinge. Exchanging the hydrophobic pendant benzyloxy group for the morpholinoethyl-containing substituent in 5 y SU1336 removes any direct interaction with these hinge residues, preferring to sit in a more solvent-exposed position, as befits a basic side chain that will be protonated at physiological pH (FIG. 12B).
(§2) Black, 4 SU1253; grey, 5 r SU1261; diagonal stripes, 6 g SU1349. […] All tested compounds (4 SU1253, 5 r SU1261 and 6 g SU1349 ) inhibited CDK5 and CDK9 with >80 %.

CDK5 = CDK5 (Homo sapiens, UniProt Q00535); assay: kinome profiling at 1 μM, CDK5; assay type: biochemical; details: read-out: % inhibition of CDK5
Sequence of CDK5 (Q00535 whole entry, species assumed): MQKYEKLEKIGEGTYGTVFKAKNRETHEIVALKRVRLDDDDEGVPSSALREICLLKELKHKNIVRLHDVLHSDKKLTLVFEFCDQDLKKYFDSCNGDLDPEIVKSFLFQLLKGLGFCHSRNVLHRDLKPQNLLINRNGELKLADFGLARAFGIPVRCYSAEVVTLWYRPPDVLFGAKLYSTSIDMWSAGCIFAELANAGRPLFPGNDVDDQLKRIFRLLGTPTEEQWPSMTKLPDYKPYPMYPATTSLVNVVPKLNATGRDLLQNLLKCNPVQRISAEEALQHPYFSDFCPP
Sequence of CDK5 (Q15078 99-307 partner limits assumed, species assumed): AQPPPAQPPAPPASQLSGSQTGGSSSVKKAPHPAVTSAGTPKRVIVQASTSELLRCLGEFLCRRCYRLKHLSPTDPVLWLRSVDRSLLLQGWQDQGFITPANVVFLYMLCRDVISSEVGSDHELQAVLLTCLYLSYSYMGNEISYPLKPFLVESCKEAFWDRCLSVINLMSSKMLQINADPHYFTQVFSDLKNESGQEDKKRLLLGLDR
Excerpt: as §1, §2

IKKα [3] = target: T1, IKKα; assay: in-house DELFIA kinase assay, IKKα; assay type: biochemical
Excerpt: (§3) To examine the pyrrolo[2,3 -b]pyridines as an alternative scaffold, we adopted the AIPP core because it had similar dimensions to 1 SU909, with HBD/HBA motifs positioned at the scaffold extremities to interact with both the hinge region and the G-loop wall of IKKα, a rationale we had previously proposed as the basis for imparting selectivity. A preliminary set of AIPP derivatives was designed to explore its utility as an IKK-targeting scaffold, whilst incorporating additional functionality through which to introduce selectivity for the IKKα isoform (2-4 SU1087, SU1266 and SU1253; FIG. 3). This was achieved by initially adopting two different approaches: either appending a hydrophobic moiety to the pyrrolo[2,3 -b]pyridine motif as a fused form to afford the tricyclic derivatives 2 and 3 SU1266 and SU1087, or as a phenyl substituent to introduce flexibility with the central pyrrolo[2,3 -b]pyridine moiety in 4 SU1253 . […] The pyrrolo[2,3 -b]pyridine was bound to the hinge region in the classical HBA/HBD motif with the GK+3 NH and C═O backbone, whilst the aminoindazole projected towards the top of the pocket to interact with the G-loop (FIG. 4A). […] In both isoforms, the 2 -phenyl moiety was oriented out from the hinge towards the exposed solvent area.

IKKβ = target: T2, IKKβ (Homo sapiens, UniProt O14920); assay: in-house DELFIA kinase assay, IKKβ; assay type: biochemical
T2 sequence (O14920 1-756): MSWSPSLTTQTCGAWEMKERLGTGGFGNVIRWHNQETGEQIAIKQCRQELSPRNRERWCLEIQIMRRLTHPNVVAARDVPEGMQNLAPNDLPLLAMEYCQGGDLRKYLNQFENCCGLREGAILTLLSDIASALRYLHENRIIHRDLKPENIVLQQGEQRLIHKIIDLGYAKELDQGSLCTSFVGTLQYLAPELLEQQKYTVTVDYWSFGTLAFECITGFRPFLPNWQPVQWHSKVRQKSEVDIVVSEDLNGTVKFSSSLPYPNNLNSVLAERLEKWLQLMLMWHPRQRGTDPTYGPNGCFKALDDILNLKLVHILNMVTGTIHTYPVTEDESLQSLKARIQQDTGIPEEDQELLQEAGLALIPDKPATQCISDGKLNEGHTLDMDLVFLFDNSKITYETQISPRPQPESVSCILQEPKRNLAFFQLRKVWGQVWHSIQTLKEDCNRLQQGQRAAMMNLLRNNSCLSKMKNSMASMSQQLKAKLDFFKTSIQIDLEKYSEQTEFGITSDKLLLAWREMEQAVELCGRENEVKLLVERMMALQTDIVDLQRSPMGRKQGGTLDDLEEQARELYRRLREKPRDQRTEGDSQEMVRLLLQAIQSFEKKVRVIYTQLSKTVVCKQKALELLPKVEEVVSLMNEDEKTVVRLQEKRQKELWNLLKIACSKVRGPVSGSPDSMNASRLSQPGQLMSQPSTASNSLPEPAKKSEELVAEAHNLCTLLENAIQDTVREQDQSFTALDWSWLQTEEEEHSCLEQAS
Excerpt: To examine the pyrrolo[2,3 -b]pyridines as an alternative scaffold, we adopted the AIPP core because it had similar dimensions to 1 SU909, with HBD/HBA motifs positioned at the scaffold extremities to interact with both the hinge region and the G-loop wall of IKKα, a rationale we had previously proposed as the basis for imparting selectivity. A preliminary set of AIPP derivatives was designed to explore its utility as an IKK-targeting scaffold, whilst incorporating additional functionality through which to introduce selectivity for the IKKα isoform (2-4 SU1087, SU1266 and SU1253; FIG. 3). This was achieved by initially adopting two different approaches: either appending a hydrophobic moiety to the pyrrolo[2,3 -b]pyridine motif as a fused form to afford the tricyclic derivatives 2 and 3 SU1266 and SU1087, or as a phenyl substituent to introduce flexibility with the central pyrrolo[2,3 -b]pyridine moiety in 4 SU1253 .

panel of kinases = assay: kinome profiling at 1 μM; assay type: biochemical
Excerpt: as §1, §2

IKKα over IKKβ [4] = assay: selectivity for IKKα over IKKβ from the kinase assay; assay type: biochemical
Excerpt: as §3
To shift the selectivity profile towards IKKα, we selected 4 SU1253 for structural optimization based on the notion that sigma-bond rotation between the phenyl ring and the pyrrolo[2,3 -b]pyridine would inbuild the flexibility required to engage with the three dimensional array of residues nearby to exploit differences between the two isoforms. Furthermore, this would enable the inclusion of moieties that could also project into solvent and address solubility considerations. Small groups (NH2, OH, OMe, OEt and F) were initially introduced into the phenyl ring to evaluate their impact on the selectivity profile against both IKKs (5 a-g SU1354 -SU1373, Table 2 ). Our goal was to achieve a 1:50 selectivity ratio of IKKα to IKKβ, with a minimum IKKβ inhibitory Ki of 500 nM.

[5] = mouse hepatocyte clearance (cryopreserved pooled mouse CD1 hepatocytes); assay type: in vitro ADME; details: mouse, hepatocytes; 1 μM; 0.5×10^6 cells/mL; 37° C.
Experimental: Pharmacokinetic studies were contracted to Sygnature Discovery Limited. Intrinsic clearance and half life were determined using cryopreserved pooled mouse CD1 hepatocytes. Test compounds were analysed at 1 μM in Williams Media E buffer (0.01 % DMSO) at a cell density of 0.5×10^6 cells mL^−1 . Cells were incubated at 37° C. for one hour with shaking and compound depletion was measured by LC-MS/MS at six timepoints (0.25, 5, 10, 20, 40, and 60 minutes).

Turbidimetric solubility = assay type: physicochemical

SMILES	Ki (IKKα [1]) [nM]	selective inhibition of IKKα, in words (IKKα over IKKβ [2])	selectivity in U2OS cells, in words (U2OS cells)	inhibition at 1 µM (CDK9) [%]	inhibition at 1 µM (CDK5) [%]	Ki (IKKα [3]) [nM]	Ki (IKKβ) [nM]	kinome selectivity, in words (panel of kinases)	number of kinases inhibited by >80 % (panel of kinases; panel of 231 kinases) [kinases]	number of kinases inhibited by >80 % (panel of kinases; panel of 253 kinases (FIG. 11)) [kinases]	selectivity for IKKα over IKKβ, in words (IKKα over IKKβ [4])	hepatocyte CLint [5] [µL/min/1e6 cells]	solubility, in words (Turbidimetric solubility)	IKKβ inhibition, in words (IKKβ)
N#Cc1c[nH]c2nc(N)nc(-c3ccc(S(N)(=O)=O)cc3)c12 [1 SU909]	80	selective inhibitor of IKKα	recapitulated this discrimination in U2OS cells											
Nc1n[nH]c2ccc(-c3ccnc4[nH]c(-c5ccccc5)cc34)cc12 [4 SU1253, 5-(2 -Phenyl-1 H-pyrrolo[2,3-b]pyridin-4-yl)-1 H-indazol-3-amine]				> 80	> 80	3	15	very promiscuous	44	46				
Nc1n[nH]c2ccc(-c3ccnc4[nH]c(-c5ccnc(OCc6ccncc6)c5)cc34)cc12 [6k SU1628, 5-(2-(2-(Pyridin-4-ylmethoxy)pyridin-4-yl)-1 H-pyrrolo[2,3-b]pyridin-4-yl)-1 H-indazol-3-amine]						6	12				equipotent against both isoforms	11	requisite solubility	potent inhibition against IKKβ
